Measured values from patent publication US20190031599A1, “INDANE DERIVATIVES AS MGLUR7 MODULATORS” (Takeda Pharmaceutical Company Limited, priority 2016, published 2019).

target: T1, human mGluR7 (Homo sapiens, UniProt Q14831); experiment: mGluR7 assay: CRE-directed luciferase reporter gene assay, reduction of forskolin stimulated cAMP production; format: cell-based; conditions: stable CHO cell line expressing the CRE-luc reporter and human mGluR7 genes; decrease of forskolin stimulated luminescence; 10-point concentration-response, duplicate wells
T1 construct: expressed in transfected cells
Protocol: The ability of the test compounds to activate mGluR7 was determined by their ability to reduce forskolin stimulated cAMP production. Compounds were assessed in a CRE-directed luciferase reporter gene assay, using a stable CHO cell line expressing the CRE-luc reporter and human mGluR7 genes. In this cell line, production of cAMP stimulated the transcription of the luciferase gene and luciferase activity was then measured in a luminescent enzyme assay (Steady Glo assay; Promega E2550). Activation of mGluR7 decreased the forskolin stimulated luminescence signal.
The day prior to the assay, compounds were serially diluted in DMSO (100× final assay concentration (FAC)), in 384-well plates which were then stored in the dark at room temperature (RT) until use. Cells were seeded at 12.5 k/well in white, clear bottom 384-well plates (Corning 3707) and left for one hour at RT followed by an overnight incubation (37° C.). The following day, the DMSO compound plate was diluted 1:20 (5× FAC) in Opti-MEM I (Life Technologies 11058021). The growth media was removed from the cell plate and replaced with 15 μl Opti-MEM I, followed by a 5 μl addition from the 5× compound plate and a fifteen minute incubation (37° C.). Forskolin (Sigma F3917) was then added to the wells (5 μl of 2.5 μM) and the plate was incubated for five hours (37° C.). During this incubation, the Steady Glo Substrate reagent was warmed to 37° C. Aliquots (11 ml; stored at −20° C.) of this reagent were prepared by dissolving the contents of 1 vial of lyophilised substrate in 100 ml Steady-Glo buffer. A 25 μl addition of the substrate was made to all wells and the plate was incubated for thirty minutes at RT, on a plate shaker (300 rpm; in the dark). Luminescence was then measured using the EnVision Multilabel Reader (Perkin Elmer).
Compound activity was examined using a 10-point, half log concentration-response range and each concentration was tested in duplicate wells. Luminescence values were normalised to ‘maximum’ (forskolin alone) and ‘minimum’ (forskolin in the presence of tool mGluR7 agonist) controls.

T1 sequence (Q14831 35-915): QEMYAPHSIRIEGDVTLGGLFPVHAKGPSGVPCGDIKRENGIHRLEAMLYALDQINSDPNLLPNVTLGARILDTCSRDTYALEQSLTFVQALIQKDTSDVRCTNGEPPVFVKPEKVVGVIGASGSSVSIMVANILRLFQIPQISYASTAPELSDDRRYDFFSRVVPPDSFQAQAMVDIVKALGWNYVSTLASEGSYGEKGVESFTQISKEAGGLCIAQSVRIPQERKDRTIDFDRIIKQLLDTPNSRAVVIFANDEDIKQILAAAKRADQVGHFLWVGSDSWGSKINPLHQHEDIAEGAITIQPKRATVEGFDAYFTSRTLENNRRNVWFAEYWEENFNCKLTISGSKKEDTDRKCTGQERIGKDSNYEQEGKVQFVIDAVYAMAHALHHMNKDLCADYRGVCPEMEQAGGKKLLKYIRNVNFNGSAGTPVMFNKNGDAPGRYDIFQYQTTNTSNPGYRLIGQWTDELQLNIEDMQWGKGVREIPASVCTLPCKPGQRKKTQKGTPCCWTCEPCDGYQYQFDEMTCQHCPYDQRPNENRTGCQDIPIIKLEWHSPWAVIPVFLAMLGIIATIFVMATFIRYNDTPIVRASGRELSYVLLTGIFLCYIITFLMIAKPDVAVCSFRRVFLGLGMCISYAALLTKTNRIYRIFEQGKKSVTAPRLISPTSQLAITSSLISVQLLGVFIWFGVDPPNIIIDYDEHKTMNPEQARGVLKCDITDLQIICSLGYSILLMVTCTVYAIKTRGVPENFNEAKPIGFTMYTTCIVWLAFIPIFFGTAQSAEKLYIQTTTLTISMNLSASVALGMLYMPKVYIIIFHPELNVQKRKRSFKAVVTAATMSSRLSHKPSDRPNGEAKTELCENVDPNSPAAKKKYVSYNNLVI

Row | EC50 [nM] | SMILES
1 | 280 | COC1c2ccccc2CC1NC(=O)C(c1ccc(F)cc1F)n1ncccc1=O (single isomer, unassigned) [Example 126, 2-(2,4-difluorophenyl)-N-(trans)-(1-methoxy-2,3-dihydro-1H-inden-2-yl)-2-(6-oxo-1,6-dihydropyridazin-1-yl)acetamide]
2 | 82 | COC1c2ccccc2CC1NC(=O)C(c1ccc(F)cc1F)n1ncccc1=O (single isomer, unassigned) [Example 127, 2-(2,4-difluorophenyl)-N-(trans)-(1-methoxy-2,3-dihydro-1H-inden-2-yl)-2-(6-oxo-1,6-dihydropyridazin-1-yl)acetamide]
3 | 1320 | COC1c2ccccc2CC1NC(=O)C(c1ccc(F)cc1)n1ncccc1=O (single isomer, unassigned) [Example 128, 2-(4-fluorophenyl)-N-(trans)-(1-methoxy-2,3-dihydro-1H-inden-2-yl)-2-(6-oxo-1,6-dihydropyridazin-1-yl)acetamide]
4 | 3900 | COC1c2ccccc2CC1NC(=O)C(c1ccc(F)cc1)n1ncccc1=O (single isomer, unassigned) [Example 129, 2-(4-fluorophenyl)-N-(trans)-(1-methoxy-2,3-dihydro-1H-inden-2-yl)-2-(6-oxo-1,6-dihydropyridazin-1-yl)acetamide]
5 | 148 | COC1c2ccccc2CC1NC(=O)C(c1ccc(F)cc1)n1ncccc1=O (single isomer, unassigned) [Example 130, 2-(4-fluorophenyl)-N-(trans)-(1-methoxy-2,3-dihydro-1H-inden-2-yl)-2-(6-oxo-1,6-dihydropyridazin-1-yl)acetamide]
6 | 89 | COC1c2ccccc2CC1NC(=O)C(c1ccc(F)cc1)n1ncccc1=O (single isomer, unassigned) [Example 131, 2-(4-fluorophenyl)-N-(trans)-(1-methoxy-2,3-dihydro-1H-inden-2-yl)-2-(6-oxo-1,6-dihydropyridazin-1-yl)acetamide]
7 | 1980 | COC1c2ccccc2CC1NC(=O)C(c1ccc(F)cc1F)N1CC(F)C1 (single isomer, unassigned) [Example 136, 2-(2,4-difluorophenyl)-2-(3-fluoroazetidin-1-yl)-N-(trans)-(1-methoxy-2,3-dihydro-1H-inden-2-yl)acetamide]
8 | 741 | COC1c2ccccc2CC1NC(=O)C(c1ccc(F)cc1F)N1CC(F)C1 (single isomer, unassigned) [Example 137, 2-(2,4-difluorophenyl)-2-(3-fluoroazetidin-1-yl)-N-(trans)-(1-methoxy-2,3-dihydro-1H-inden-2-yl)acetamide]
9 | 14 | COC1c2ccccc2CC1NC(=O)C(c1ccc(F)cc1F)N1CC(F)C1 (single isomer, unassigned) [Example 138, 2-(2,4-difluorophenyl)-2-(3-fluoroazetidin-1-yl)-N-(trans)-(1-methoxy-2,3-dihydro-1H-inden-2-yl)acetamide]
10 | 61 | COC1c2ccccc2CC1NC(=O)C(c1ccc(F)cc1F)N1CC(F)C1 (single isomer, unassigned) [Example 139, 2-(2,4-difluorophenyl)-2-(3-fluoroazetidin-1-yl)-N-(trans)-(1-methoxy-2,3-dihydro-1H-inden-2-yl)acetamide]
11 | 1270 | COC1c2ccccc2CC1NC(=O)C(c1ccc(F)cc1)N1CC(F)C1 (single isomer, unassigned) [Example 140, 2-(4-fluorophenyl)-2-(3-fluoroazetidin-1-yl)-N-(trans)-(1-methoxy-2,3-dihydro-1H-inden-2-yl)acetamide]
12 | 39 | COC1c2ccccc2CC1NC(=O)C(c1ccc(F)cc1)N1CC(F)C1 (single isomer, unassigned) [Example 141, 2-(4-fluorophenyl)-2-(3-fluoroazetidin-1-yl)-N-(trans)-(1-methoxy-2,3-dihydro-1H-inden-2-yl)acetamide]
13 | 62 | COC1c2ccccc2CC1NC(=O)C(c1ccc(F)cc1)N1CC(F)C1 (single isomer, unassigned) [Example 142, 2-(4-fluorophenyl)-2-(3-fluoroazetidin-1-yl)-N-(trans)-(1-methoxy-2,3-dihydro-1H-inden-2-yl)acetamide]
14 | 1250 | COC1c2ccccc2CC1NC(=O)C(c1ccc(F)cc1)N1CC(F)C1 (single isomer, unassigned) [Example 143, 2-(4-fluorophenyl)-2-(3-fluoroazetidin-1-yl)-N-(trans)-(1-methoxy-2,3-dihydro-1H-inden-2-yl)acetamide]
15 | 191 | COC1c2ccccc2CC1NC(=O)[C@H](NC(=O)C1CC1)c1ccc(F)cc1 (single isomer, unassigned) [Example 144]
16 | 0.6 | CS(=O)(=O)C1c2ccccc2CC1NC(=O)C(OCC1CC1)c1ccccc1 (single isomer, unassigned) [Example 145, 2-(cyclopropylmethoxy)-N-(trans)-(1-methanesulfonyl-2,3-dihydro-1H-inden-2-yl)-2-phenylacetamide]
17 | 4 | CS(=O)(=O)C1c2ccccc2CC1NC(=O)C(OCC1CC1)c1ccccc1 (single isomer, unassigned) [Example 146, 2-(cyclopropylmethoxy)-N-(trans)-(1-methanesulfonyl-2,3-dihydro-1H-inden-2-yl)-2-phenylacetamide]
18 | 39 | CS(=O)(=O)C1c2ccccc2CC1NC(=O)C(OCC1CC1)c1ccccc1 (single isomer, unassigned) [Example 147, 2-(cyclopropylmethoxy)-N-(trans)-(1-methanesulfonyl-2,3-dihydro-1H-inden-2-yl)-2-phenylacetamide]
19 | 16 | CS(=O)(=O)C1c2ccccc2CC1NC(=O)C(OCC1CC1)c1ccccc1 (single isomer, unassigned) [Example 148, 2-(cyclopropylmethoxy)-N-(trans)-(1-methanesulfonyl-2,3-dihydro-1H-inden-2-yl)-2-phenylacetamide]
20 | 56 | CO[C@H](C(=O)NC1Cc2ccccc2C1S(C)(=O)=O)c1ccccc1 (single isomer, unassigned) [Example 158]
21 | 25 | CO[C@H](C(=O)NC1Cc2ccccc2C1S(C)(=O)=O)c1ccccc1 (single isomer, unassigned) [Example 159]
22 | 2 | CS(=O)(=O)[C@@H]1c2ccccc2C[C@H]1NC(=O)C(OCC1CC1)c1ccc(F)cc1 (single isomer, unassigned) [Example 161, 2-(cyclopropylmethoxy)-2-(4-fluorophenyl)-N-(trans)-(1-methanesulfonyl-2,3-dihydro-1H-inden-2-yl)acetamide]
23 | 2 | CS(=O)(=O)[C@@H]1c2ccccc2C[C@H]1NC(=O)C(OCC1CC1)c1ccc(F)cc1 (single isomer, unassigned) [Example 162, 2-(cyclopropylmethoxy)-2-(4-fluorophenyl)-N-(trans)-(1-methanesulfonyl-2,3-dihydro-1H-inden-2-yl)acetamide]
24 | 559 | C[C@@H](C(=O)NC1Cc2ccccc2C1O)c1ccccc1 (stereo in doubt) [Example 1, (2R)—N-((trans)-1-hydroxy-2,3-dihydro-1H-inden-2-yl)-2-phenylpropanamide]
25 | 1030 | COC1c2ccccc2CC1NC(=O)[C@@H](C)c1ccccc1 (stereo in doubt) [Example 10, (2S)—N-((cis)-1-methoxy-2,3-dihydro-1H-inden-2-yl)-2-phenylpropanamide]
26 | 19 | CCOC1c2ccccc2CC1NC(=O)[C@@H](C)c1ccc(F)cc1 (stereo in doubt) [Example 31, (2S)—N-((trans)-1-ethoxy-2,3-dihydro-1H-inden-2-yl)-2-(4-fluorophenyl)propanamide]
27 | 633 | COC1c2ccccc2CC1NC(=O)[C@@H](C)c1ccc(F)cc1 (stereo in doubt) [Example 39, (2S)-2-(4-fluorophenyl)-N-(cis)-(1-methoxy-2,3-dihydro-1H-inden-2-yl)propanamide]
28 | 56 | C[C@H](C(=O)NC1Cc2ccccc2C1O)c1ccc(F)cc1 (stereo in doubt) [Example 61, (2S)-2-(4-fluorophenyl)-N-(trans)-(1-hydroxy-2,3-dihydro-1H-inden-2-yl)propanamide]
29 | 4 | COC1c2ccccc2CC1NC(=O)[C@@H](NC(=O)c1cnn(C)c1)c1ccc(F)cc1 (stereo in doubt) [Example 65, (2S)-2-(4-fluorophenyl)-N-(trans)-(1-methoxy-2,3-dihydro-1H-inden-2-yl)-2-[(1-methyl-1H-pyrazol-4-yl)formamido]acetamide]
30 | 4 | COC1c2ccccc2CC1NC(=O)[C@@H](NC(=O)C1CC1)c1ccc(F)cc1 (stereo in doubt) [Example 66, (2S)-2-(cyclopropylformamido)-2-(4-fluorophenyl)-N-(trans)-(1-methoxy-2,3-dihydro-1H-inden-2-yl)acetamide]
